# According to US7449195B2 (priority 2001, dated 2008):
# Read-outs that look alike come from different tables or passages of the source.
# Test system: Phytophthora infestans
# Type: in vivo
# Settings: individual active compound, tomato leaves, protective, evaluated after 6 days
smiles,measurement,setting,value
"Cc1ccc(C(C)NC(=O)[C@@H](NC(=O)OC(C)C)C(C)C)cc1 (stereo partly drawn) [II-3, iprovalicarb]",Efficacy in % of the untreated control,0.05 ppm in the spray liquor,29%
same,Efficacy in % of the untreated control,0.1 ppm in the spray liquor,53%
same,Efficacy in % of the untreated control,0.2 ppm in the spray liquor,70%
"Cc1ccc(-c2c(Cl)nc(C#N)n2S(=O)(=O)N(C)C)cc1 [Ia, cyazofamid]",Efficacy in % of the untreated control,0.05 ppm in the spray liquor,53%
same,Efficacy in % of the untreated control,0.1 ppm in the spray liquor,70%
same,Efficacy in % of the untreated control,0.2 ppm in the spray liquor,82%
